Experimental data as given in patent US10358434B2, “2-(3-pyridinyl)-1H-benzimidazole derivative compound and medicament containing same” (NIHON MEDI-PHYSICS CO., LTD., priority 2014, dated 2019).
Blank lines part the entries; values can stand above or below the molecule they belong to.

Key:
human CYP11B2 = target: T1, human CYP11B2 (Homo sapiens, UniProt P19099); assay: Aldosterone production inhibition in V79-B2 cells expressing human CYP11B2 (ELISA); type: cell-based
T1 construct: expressed in transfected cells; host or cells: V79 cells (Chinese hamster lung-derived fibroblasts, from ECACC through DS Pharma Biomedical)
T1 sequence (P19099 25-503): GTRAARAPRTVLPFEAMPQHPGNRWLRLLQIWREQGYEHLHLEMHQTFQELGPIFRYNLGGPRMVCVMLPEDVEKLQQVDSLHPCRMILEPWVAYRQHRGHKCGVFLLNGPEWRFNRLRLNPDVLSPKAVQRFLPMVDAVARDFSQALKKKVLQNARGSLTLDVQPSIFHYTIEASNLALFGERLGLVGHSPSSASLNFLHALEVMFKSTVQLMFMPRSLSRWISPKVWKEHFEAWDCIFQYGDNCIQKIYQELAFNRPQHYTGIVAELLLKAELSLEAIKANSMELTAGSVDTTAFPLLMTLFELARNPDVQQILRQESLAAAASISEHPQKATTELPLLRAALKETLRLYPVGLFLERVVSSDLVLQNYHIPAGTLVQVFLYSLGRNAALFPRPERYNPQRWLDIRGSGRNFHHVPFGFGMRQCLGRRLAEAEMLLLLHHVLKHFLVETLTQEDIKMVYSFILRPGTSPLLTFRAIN
Procedure: (§1) This inhibition experiment can be carried out by the following operations. Human CYP11B1 and human CYP11B2 are allowed to individually express in Chinese hamster lung-derived fibroblasts. Subsequently, 11-deoxycortisol is added to the cells expressing human CYP11B1 to a final concentration of 100 nmol/L, and corticosterone is added to the cells expressing human CYP11B2 to a final concentration of 100 nmol/L. At the same time, a target compound used as an analytical sample is added to each of the cells to a final concentration of 10^−4 to 10^4 nmol/L. Thereafter, the concentration of cortisol as a metabolite of CYP11B1 is measured in the cells expressing human CYP11B1 according to ELISA (Enzyme-Linked ImmunoSorbent Assay), and the concentration of aldosterone as a metabolite of CYP11B2 is measured in the cells expressing human CYP11B2 according to ELISA. Provided that the aldosterone concentration and the cortisol concentration without addition of any target compound as a sample are each set at 100%, an inhibition curve is produced, and then inhibitory activity (IC50) is calculated.
(§2) Chinese hamster lung-derived fibroblasts, V79 cells (acquired from ECACC (European Collection of Cell Cultures) through DS Pharma Biomedical), were allowed to express human CYP11B2, so as to produce V79-B2, and were also allowed to express human CYP11B1, so as to produce V79-B1. V79 cells were cultured in a DMEM medium (containing 4,500 mg/L D-glucose, L-glutamine, and 110 mg/L sodium pyruvate; manufactured by Life Technologies). V79-B2 or V79-B1 was inoculated on a microplate, and then cultured overnight. Thereafter, a mixed solution of corticosterone and a compound as a test target was added into a culture supernatant of V79-B2, and a mixed solution of 11-deoxycortisol and a compound as a test target was added into a culture supernatant of V79-B1. As a solvent for these mixed solutions, the aforementioned DMEM medium further containing 0.1 v/v % dimethyl sulfoxide was used. The concentration of corticosterone or 11-deoxycortisol was adjusted to be 100 nmol/L by addition of the solvent. As test target compounds, (R)-4-iodometomidate (IMTO), and Compounds 100, 200, 300, 400, 500, and 601 to 610 synthesized by methods shown in Examples 1, 3, 5, 6, 8, 10, 12, 14, 16, 18, 20, 22, 24, 26, and 28, respectively, were used. The aforementioned mixed solution was prepared such that the concentration of each compound was 10^−4 to 10^4 nmol/L in the mixed solution. One hour later, the culture supernatant of V79-B1 was recovered, and the concentration of cortisol as a metabolite of CYP11B1 was measured by ELISA (Enzyme-Linked ImmunoSorbent Assay). Moreover, four hours later, the culture supernatant of V79-B2 was recovered, and the concentration of aldosterone as a metabolite of CYP11B2 was measured by ELISA. Provided that the concentration of aldosterone or the concentration of cortisol obtained when none of IMTO and Compounds 100, 200, 300, 400 and 500 was added was defined as 100%, an inhibition curve was produced, and the inhibitory activity (IC50) of each compound was then calculated.
(§3) In Tables 5 and 6, the term “Selectivity factor” indicates a quotient of the mean value of IC50 for cortisol production inhibition divided by the mean value of IC50 for aldosterone production inhibition. In addition, the symbol “n” indicates the number of tests.

human CYP11B1 = target: T2, human CYP11B1 (Homo sapiens, UniProt P15538); assay: Cortisol production inhibition in V79-B1 cells expressing human CYP11B1 (ELISA); type: cell-based; details: 11-deoxycortisol 100 nmol/L, 1 hour, cortisol by ELISA, mean or mean ± SD
T2 construct: expressed in transfected cells; host or cells: V79 cells (Chinese hamster lung-derived fibroblasts, from ECACC through DS Pharma Biomedical)
T2 sequence (P15538 25-503): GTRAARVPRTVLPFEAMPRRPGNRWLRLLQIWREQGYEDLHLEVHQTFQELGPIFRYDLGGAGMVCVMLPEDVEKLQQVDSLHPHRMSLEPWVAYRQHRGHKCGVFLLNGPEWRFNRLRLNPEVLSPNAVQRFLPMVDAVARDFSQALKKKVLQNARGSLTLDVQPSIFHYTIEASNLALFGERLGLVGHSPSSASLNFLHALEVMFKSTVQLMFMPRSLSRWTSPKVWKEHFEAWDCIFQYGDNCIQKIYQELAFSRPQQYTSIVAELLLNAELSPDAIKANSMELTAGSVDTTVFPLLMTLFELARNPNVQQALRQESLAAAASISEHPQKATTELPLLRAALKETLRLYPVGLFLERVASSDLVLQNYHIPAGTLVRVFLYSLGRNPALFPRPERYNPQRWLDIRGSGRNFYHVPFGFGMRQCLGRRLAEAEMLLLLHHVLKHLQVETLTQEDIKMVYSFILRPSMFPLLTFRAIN
Procedure: as §1, §2, §3

[1] = In vivo kinetics experiment (radioactivity distribution); set-up: species or system Wistar male rat; details: rat, caudal vein
Outline: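 Tissue radioactivity (% ID/g) and adrenal-to-blood, liver, kidney, small intestine, muscle and fat ratios determined at 10, 30 and 60 min post-dose. Tracers (approximately 1 to 3.7 MBq, saline with 1 w/v % ascorbic acid) injected i.v. into caudal vein of anesthetized 9-week male Wistar rats; organs excised, weighed, counted.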

[2] = test system: human adrenal gland section expressing aldosterone-producing adenoma; assay: In vitro autoradiography using human adrenal adenoma; type: binding; details: section of FIG. 17(a)
Outline: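 Autoradiography readout: PSL in equal-sized ROIs over adenoma (B2) and normal adrenal cortex (B1), expressed as B2/B1 and decay-corrected using half-life, applied activity and plate contact time. Tissue was surgically excised human adrenal, frozen and cut at 7 μm, incubated 10 min with 5-33 kBq/mL tracer in BSA-containing PBS, then imaged after 16-20 h exposure.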

[3] = Plasma stability evaluation (TLC analysis); type: in vitro ADME; details: 37° C., 60 minutes, TLC analysis
Outline: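 TLC analysis, using each compound's synthesis conditions, judged stability after methanol was added and samples were centrifuged to remove protein. Beforehand, each tracer had spent 60 minutes at 37° C in pooled heparinized normal human plasma.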

IC50 (human CYP11B2; V79-B2 cells, corticosterone 100 nmol/L, 4 hours, aldosterone by ELISA, mean or mean ± SD): 10.6 nM
Selectivity factor (human CYP11B2; mean IC50 cortisol production inhibition divided by mean IC50 aldosterone production inhibition): 1.79
IC50 (human CYP11B1): 19 nM
Molecule: COC(=O)c1cncn1Cc1cncc(-c2nc3cc(F)c(Br)cc3n2CCO)c1 [Compound 300, 2-{6-Bromo-5-fluoro-2-[5-(5-methylcarboxylateimidazol-1-ylmethyl)pyridin-3-yl]benzimidazol-1-yl}ethanol]

Molecule: Methyl 1-[4-(1-cyclopropyl-6-[^123I]iodo-1H-imidazobenzo-2-yl)-3-pyridinylmethyl)]-1H-imidazolecarboxylate [[^123I] 601]
Adrenal gland/blood ratio of radioactivity accumulation ([1]; 10 min after administration): 49.76 ± 8.04
Adrenal gland/fat ratio of radioactivity accumulation ([1]; 10 min after administration): 48.18 ± 26.02
Adrenal gland/kidney ratio of radioactivity accumulation ([1]; 10 min after administration): 11.53 ± 2.04
Adrenal gland/liver ratio of radioactivity accumulation ([1]; 10 min after administration): 3.21 ± 0.44
Adrenal gland/muscle ratio of radioactivity accumulation ([1]; 10 min after administration): 51.74 ± 11.28
Adrenal gland/small intestine ratio of radioactivity accumulation ([1]; 10 min after administration): 6.93 ± 2.04
Radioactivity distribution Adrenal gland ([1]; 10 min after administration): 13.40 ± 2.41 % ID/g
Radioactivity distribution Bladder (including urine) ([1]; 10 min after administration): 0.65 ± 0.26 % ID/g
Radioactivity distribution Blood ([1]; 10 min after administration): 0.27 ± 0.01 % ID/g
Radioactivity distribution Fat ([1]; 10 min after administration): 0.34 ± 0.16 % ID/g
Radioactivity distribution Heart ([1]; 10 min after administration): 0.61 ± 0.03 % ID/g
Radioactivity distribution Kidney ([1]; 10 min after administration): 1.16 ± 0.02 % ID/g
Radioactivity distribution Large intestine ([1]; 10 min after administration): 0.14 ± 0.01 % ID/g
Radioactivity distribution Liver ([1]; 10 min after administration): 4.15 ± 0.27 % ID/g
Radioactivity distribution Lung ([1]; 10 min after administration): 0.54 ± 0.01 % ID/g
Radioactivity distribution Muscle (lower limbs) ([1]; 10 min after administration): 0.26 ± 0.02 % ID/g
Radioactivity distribution Remaining whole body ([1]; 10 min after administration): 0.30 ± 0.01 % ID/g
Radioactivity distribution Small intestine ([1]; 10 min after administration): 1.99 ± 0.27 % ID/g
Radioactivity distribution Spleen ([1]; 10 min after administration): 0.51 ± 0.02 % ID/g
Radioactivity distribution Stomach ([1]; 10 min after administration): 0.83 ± 0.25 % ID/g
Radioactivity distribution Testis ([1]; 10 min after administration): 0.32 ± 0.01 % ID/g
Radioactivity distribution Thyroid gland ([1]; 10 min after administration): 0.62 ± 0.09 % ID/g
Radioactivity distribution Whole brain ([1]; 10 min after administration): 0.15 ± 0.01 % ID/g
Adrenal gland/blood ratio of radioactivity accumulation ([1]; 30 min after administration): 88.31 ± 19.36
Adrenal gland/fat ratio of radioactivity accumulation ([1]; 30 min after administration): 34.33 ± 3.72
Adrenal gland/kidney ratio of radioactivity accumulation ([1]; 30 min after administration): 28.94 ± 22.29
Adrenal gland/liver ratio of radioactivity accumulation ([1]; 30 min after administration): 6.49 ± 1.59
Adrenal gland/muscle ratio of radioactivity accumulation ([1]; 30 min after administration): 72.90 ± 18.29
Adrenal gland/small intestine ratio of radioactivity accumulation ([1]; 30 min after administration): 3.30 ± 0.96
Radioactivity distribution Adrenal gland ([1]; 30 min after administration): 17.21 ± 1.46 % ID/g
Radioactivity distribution Bladder (including urine) ([1]; 30 min after administration): 0.41 ± 0.03 % ID/g
Radioactivity distribution Blood ([1]; 30 min after administration): 0.20 ± 0.03 % ID/g
Radioactivity distribution Fat ([1]; 30 min after administration): 0.50 ± 0.03 % ID/g
Radioactivity distribution Heart ([1]; 30 min after administration): 0.42 ± 0.08 % ID/g
Radioactivity distribution Kidney ([1]; 30 min after administration): 0.80 ± 0.39 % ID/g
Radioactivity distribution Large intestine ([1]; 30 min after administration): 0.15 ± 0.01 % ID/g
Radioactivity distribution Liver ([1]; 30 min after administration): 2.71 ± 0.39 % ID/g
Radioactivity distribution Lung ([1]; 30 min after administration): 0.43 ± 0.07 % ID/g
Radioactivity distribution Muscle (lower limbs) ([1]; 30 min after administration): 0.24 ± 0.04 % ID/g
Radioactivity distribution Remaining whole body ([1]; 30 min after administration): 0.24 ± 0.03 % ID/g
Radioactivity distribution Small intestine ([1]; 30 min after administration): 5.54 ± 1.72 % ID/g
Radioactivity distribution Spleen ([1]; 30 min after administration): 0.35 ± 0.07 % ID/g
Radioactivity distribution Stomach ([1]; 30 min after administration): 0.86 ± 0.23 % ID/g
Radioactivity distribution Testis ([1]; 30 min after administration): 0.31 ± 0.05 % ID/g
Radioactivity distribution Thyroid gland ([1]; 30 min after administration): 0.69 ± 0.26 % ID/g
Radioactivity distribution Whole brain ([1]; 30 min after administration): 0.11 ± 0.02 % ID/g
Adrenal gland/blood ratio of radioactivity accumulation ([1]; 60 min after administration): 73.52 ± 21.70
Adrenal gland/fat ratio of radioactivity accumulation ([1]; 60 min after administration): 18.31 ± 9.45
Adrenal gland/kidney ratio of radioactivity accumulation ([1]; 60 min after administration): 10.42 ± 4.49
Adrenal gland/liver ratio of radioactivity accumulation ([1]; 60 min after administration): 4.79 ± 1.48
Adrenal gland/muscle ratio of radioactivity accumulation ([1]; 60 min after administration): 63.30 ± 21.65
Adrenal gland/small intestine ratio of radioactivity accumulation ([1]; 60 min after administration): 0.99 ± 0.55
Radioactivity distribution Adrenal gland ([1]; 60 min after administration): 8.87 ± 3.98 % ID/g
Radioactivity distribution Bladder (including urine) ([1]; 60 min after administration): 1.17 ± 0.51 % ID/g
Radioactivity distribution Blood ([1]; 60 min after administration): 0.12 ± 0.02 % ID/g
Radioactivity distribution Fat ([1]; 60 min after administration): 0.50 ± 0.09 % ID/g
Radioactivity distribution Heart ([1]; 60 min after administration): 0.26 ± 0.05 % ID/g
Radioactivity distribution Kidney ([1]; 60 min after administration): 0.84 ± 0.09 % ID/g
Radioactivity distribution Large intestine ([1]; 60 min after administration): 0.14 ± 0.02 % ID/g
Radioactivity distribution Liver ([1]; 60 min after administration): 1.80 ± 0.26 % ID/g
Radioactivity distribution Lung ([1]; 60 min after administration): 0.26 ± 0.03 % ID/g
Radioactivity distribution Muscle (lower limbs) ([1]; 60 min after administration): 0.14 ± 0.02 % ID/g
Radioactivity distribution Remaining whole body ([1]; 60 min after administration): 0.15 ± 0.01 % ID/g
Radioactivity distribution Small intestine ([1]; 60 min after administration): 9.33 ± 1.02 % ID/g
Radioactivity distribution Spleen ([1]; 60 min after administration): 0.20 ± 0.03 % ID/g
Radioactivity distribution Stomach ([1]; 60 min after administration): 0.50 ± 0.29 % ID/g
Radioactivity distribution Testis ([1]; 60 min after administration): 0.22 ± 0.05 % ID/g
Radioactivity distribution Thyroid gland ([1]; 60 min after administration): 0.93 ± 0.47 % ID/g
Radioactivity distribution Whole brain ([1]; 60 min after administration): 0.10 ± 0.04 % ID/g
B2/B1 accumulation ratio [2]: 1.05
B2 (PSL value, aldosterone-producing adenoma) ([2]; site 71a): 3201
B1 (PSL value, normal adrenal cortex) ([2]; site 72a): 3040
Radiochemical purity after incubation in human plasma [3]: 98%
